Test results taken from patent US20260041677A1, “COMPOSITIONS AND METHODS FOR TREATING ADENOID CYSTIC CARCINOMA” (ELEVAR THERAPEUTICS, INC., priority 2022, published 2026).

Assays:
R/M ACC = conditions: RECIST V1.1; 500 mg QD; 68 patients, head and neck R/M ACC; cited from earlier work
[1] = Phase 2 study of rivoceranib in R/M ACC: safety, adverse events, dose modifications; format: in vivo, human
Description: Overall design: An ongoing Phase 2, multicenter, open-label, single-arm study was designed to evaluate the efficacy and safety of rivoceranib in patients with recurrent or metastatic (R/M) adenoid cystic carcinoma (ACC) of all anatomic sites of origin. The study was composed of an initial screening phase (up to 28 days), a treatment phase, and a follow-up phase.
(§1) Objectives: Primary objectives were to evaluate safety & tolerability, efficacy by objective response rate (ORR), best overall response (BOR), time to response, duration of response, disease control rate, and duration of disease control. Secondary objectives were to evaluate efficacy as measured by overall survival, progression-free survival and event-free survival. The primary efficacy endpoint was the ORR, defined as the proportion of patients who achieved confirmed complete response (CR) or partial response (PR) per Response Evaluation Criteria in Solid Tumors (RECIST) Version 1.1 (V1.1). The secondary efficacy endpoints were duration of response (DoR) assessed by the investigator and a blinded independent review committee (BIRC), progression-free survival (PFS) assessed at 6 months, 12 months, and 2 years by investigator and BIRC, Time to Progression (TTP) assessed by investigator and BIRC, and overall survival (OS) assessed at 1 and 2 years. Exploratory efficacy endpoints include ORR per CHOI response criteria (based on the journal article, Choi et al., Correlation of computed tomography and positron emission tomography in patients with metastatic gastrointestinal stromal tumor treated at a single institution with imatinib mesylate: proposal of new computed tomography response criteria. J Clin Oncol. 2007; 25(13): 1753-1759) by a blinded independent review […] (BIRC) and disease control rate (DCR) per RECIST V1.1 by Investigator and BIRC. Except for CHOI response criteria, all response endpoints were assessed per RECIST V1.1 by Investigator and BIRC.
Dose determination: Enrolled patients initiated treatment with rivoceranib 700 mg daily (QD). Up to 3 levels of dose reduction for toxicity were permitted: 500 mg QD, 300 mg QD and 200 mg QD. Patients received treatment until disease progression, unacceptable toxicity, death or withdrawal of consent to treatment. Patients deriving benefit were permitted to continue treatment with rivoceranib beyond disease progression. After discontinuation of study treatment, patients were to be followed for survival (and initiation of new anticancer therapy) for 24 months. Patients were dosed with rivoceranib 700 mg orally daily (QD) in 28-day cycles. Treatment with rivoceranib was continued until disease progression, unacceptable toxicity, death, or withdrawal of consent.
The median duration of treatment was 31.07 weeks (range: 0.6 to 103.0). The median time-averaged daily dose was 397.6 mg/day, which was […] of initial daily dose of 700 mg/day. Overall, 85% of patients required 1 or more dose modifications (reduction or interruption) due to an adverse event (AE).
Safety Summary: Rivoceranib was generally well-tolerated with the toxicity profile as expected based on other studies of rivoceranib in patients with solid tumors, and consistent with the class effect of angiogenesis inhibitors. […] Four patients experienced a fatal adverse event. These events consisted of epistaxis in two patients and acute respiratory failure in two patients. […] The median time to each of these dose reductions was 4.00, 7.71 and 16.00 weeks, respectively. The median duration of treatment was 31.1 weeks (range, 0.6-103.0). The median actual dose intensity was 421.0 mg/day. The relative dose intensity was 60.1%. Overall, 68 patients required one or more dose modifications (reduction or interruption) due to an adverse event. The median time to first dose reduction was 4.1 weeks (range, 1-40).

[2] = test system: recurrent or metastatic (R/M) adenoid cystic carcinoma (ACC); assay: Phase 2 study of rivoceranib in R/M ACC: response, PFS, TTP per CHOI response criteria by BIRC; format: in vivo, human; conditions: for Complete Response / DoR 25th percentile / DoR 75th percentile / DoR Median / Partial Response / Progressive Disease / Stable Disease / DCR (disease control rate): BIRC
Description: as §1
Endpoint of Response per CHOI response Criteria: CHOI response criteria assesses response based on change in tumor density as well as change in tumor size and have been most often used to assess response to treatment with tyrosine kinase inhibitors such as imatinib in gastrointestinal stromal tumors (GIST) where RECIST criteria underestimate response. Evaluation of response per CHOI response criteria by BIRC was added to the protocol for exploratory analysis because Investigators observed decreases in tumor density on treatment with rivoceranib without changes in tumor lesion diameters. Changes in tumor density had not been reported with other treatments investigated for R/M ACC.
Objective response rate (ORR), duration of response (DOR) and disease control rate (DCR) in the efficacy evaluable population per CHOI response criteria (using the same data set as used for analyses per RECIST V1.1): Assessment of response per CHOI response criteria required a subject have contrast-enhanced CT scan as the imaging modality for assessment of tumor density at baseline and post-baseline time points. Therefore, fewer subjects were efficacy evaluable per CHOI response criteria (N=60) than per RECIST V1.1 criteria (N=73). […] This is >4-fold higher than the ORR of 9.6% per RECIST V1.1 reported by BIRC. […] Median DOR per CHOI response criteria was 14.8 months, which was two-fold higher than that reported per RECIST V1.1-7.2 months reported by BIRC.

[3] = CHOI criteria, Total N = 60, 700 mg QD start
[4] = CHOI criteria, VEGFRi-naïve N = 48, 700 mg QD start
[5] = CHOI criteria, VEGFRi-treated N = 12, 700 mg QD start
[6] = CHOI criteria, efficacy evaluable population, 700 mg QD start

N#CC1(c2ccc(NC(=O)c3cccnc3NCc3ccncc3)cc2)CCCC1 [Rivoceranib, N-[4-(1-cyanocyclopentyl)phenyl]-2-{[(pyridin-4-yl)methyl]amino}pyridine-3-carboxamide]
6-month PFS (R/M ACC): 92.3% | ORR (R/M ACC): 46.2% | median DOR (R/M ACC): 17.7 months | fatal adverse event: acute respiratory failure ([1]; N = 80, 700 mg QD start): two | fatal adverse event: epistaxis ([1]; N = 80, 700 mg QD start): two | patients who experienced a fatal adverse event ([1]; N = 80, 700 mg QD start): Four | Median time to dose reduction to 300 mg QD ([1]; human, in vivo): 7.71 weeks | Median time to dose reduction to 500 mg QD ([1]; human, in vivo): 4.00 weeks | Number of Subjects with Dose Interruption (n, %) ([1]; human, in vivo): (83.8) % | Number of Subjects with Dose Modification (n, %) ([1]; human, in vivo): (88.8) % | Treatment interruptions due to adverse events, patients ([1]; human, in vivo): 86.3% | Treatment reductions due to adverse events, patients ([1]; human, in vivo): 48.8% | median time to first dose reduction ([1]; human, in vivo): 4.1 weeks | patients dose reduced from 700 mg QD to 500 mg QD ([1]; human, in vivo): 80.0% | patients dose reduced to 200 mg QD ([1]; human, in vivo): 32.5% | patients dose reduced to 300 mg QD ([1]; human, in vivo): 51.3% | ORR per CHOI criteria relative to ORR per RECIST V1.1 by BIRC ([2]; 51.7% vs 9.6%): > 4 fold | Complete Response [2, 3]: 0% | DoR 25th percentile [2, 3]: 7.2 months | DoR 75th percentile [2, 3]: 20.2 months | DoR Median [2, 3]: 14.8 months | Partial Response [2, 3]: (51.7) % | Progressive Disease [2, 3]: (6.7) % | Stable Disease [2, 3]: (41.7) % | Complete Response [2, 4]: 0% | DCR (disease control rate) [2, 4]: (60.4) % | DoR 25th percentile [2, 4]: 7.2 months | DoR 75th percentile [2, 4]: 20.2 months | DoR Median [2, 4]: 14.8 months | Partial Response [2, 4]: (52.1) % | Progressive Disease [2, 4]: (6.3) % | Stable Disease [2, 4]: (41.7) % | Complete Response [2, 5]: 0% | DCR (disease control rate) [2, 5]: (66.7) % | DoR 25th percentile [2, 5]: 12.2 months | DoR Median [2, 5]: 12.2 months | Partial Response [2, 5]: (50.0) % | Progressive Disease [2, 5]: (8.3) % | Stable Disease [2, 5]: (41.7) % | Median TTP [2, 6]: 14.4 months | estimated PFS rate at 6 months [2, 6]: 80.4% | estimated PFS rate at 9 months [2, 6]: 62.6% | estimated PFS rate at 12 months [2, 6]: 53.8% | estimated TTP rate at 6 months [2, 6]: 82% | estimated TTP rate at 9 months [2, 6]: 67.7% | estimated TTP rate at 12 months [2, 6]: 58.3% | median PFS [2, 6]: 13.8 months
